Data reported in PMC9675976, “Selfish uptake versus extracellular arabinoxylan degradation in the primary degrader Ruminiclostridium cellulolyticum, a new string to its bow” (Biotechnology for Biofuels and Bioproducts, 2022).
Entries after “also recorded” stand apart in the source; their conditions may differ. Like-named read-outs stand apart in the source and are kept apart here.

Columns and labels:
XuaA [1] = target: T1, XuaA (Ruminiclostridium cellulolyticum, UniProt B8I0N3); assay: Thermal shift assay (TSA) of XuaA with carbohydrate ligands; assay type: binding; conditions: for Binding to XuaA (in words): screened by TSA, then ITC
T1 sequence (B8I0N3 entry or part of it): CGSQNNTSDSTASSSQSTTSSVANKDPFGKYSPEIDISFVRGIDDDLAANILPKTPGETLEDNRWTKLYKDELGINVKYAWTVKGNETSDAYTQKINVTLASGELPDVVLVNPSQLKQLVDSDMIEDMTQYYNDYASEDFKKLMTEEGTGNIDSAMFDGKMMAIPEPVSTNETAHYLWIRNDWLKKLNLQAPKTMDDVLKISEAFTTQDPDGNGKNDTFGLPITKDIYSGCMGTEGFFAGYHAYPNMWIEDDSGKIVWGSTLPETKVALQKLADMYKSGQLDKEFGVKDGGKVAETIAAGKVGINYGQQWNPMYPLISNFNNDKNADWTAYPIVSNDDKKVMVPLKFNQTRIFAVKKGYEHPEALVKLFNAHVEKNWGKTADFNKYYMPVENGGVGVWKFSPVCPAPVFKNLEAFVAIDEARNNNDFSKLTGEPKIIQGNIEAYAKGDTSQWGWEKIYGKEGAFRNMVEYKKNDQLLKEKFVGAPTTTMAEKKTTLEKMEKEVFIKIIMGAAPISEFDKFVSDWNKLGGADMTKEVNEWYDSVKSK
Protocol: (§1) XOS and AXOS were purchased from Megazyme: A^3X (ref O-A^3X), A^2XX (ref O-A^2XX), A^2,3XX (ref O-A^2,3XX), XA^3XX (ref O-XA^3XX), XA^2,3XX (ref O-XA^2,3XX), XAXXMIX (ref O-XAXXMIX), X2 to X6 (ref O-XBI, O-XTR, O-XTE, O-XPE, O-XHE, respectively) (Fig. 3) (Megazyme). For TSA experiments, monosaccharides, XOS and AXOS were tested at a final concentration of 1 mM or 0.1 mM (for X4, X5, and X6). Experiments were performed with XuaA (8 µM) in 25 mM phosphate buffer pH 7 and SYPRO orange (1/500) (Sigma-Aldrich). Melting curves were monitored from 10 to 90 °C with 0.5 °C increment every 30 s, on CFX96 touch real-time PCR detection system (Bio-Rad, France) and analyzed using the Bio-Rad CFX Maestro 1.1 software.

XuaF = assay: Enzyme activity of XuaF on AXOS and XOS (HPAEC-PAD); assay type: biochemical, Ruminiclostridium cellulolyticum; conditions: substrate 1 mM, 37 °C
Protocol: (§2) XuaD, E, F, G (0.01 to 1 µM) were tested with different AXOS and/or XOS at 1 mM with incubation times varying from 5 min to 24 h. Enzymes (10 nM) were incubated at 37 °C for 5 min, kinetic parameters of XuaD were determined with both A^2,3XX and A^2XX, with sugar concentration varying from 0.05 to 8 mM, and XuaE with A^2,3XX with sugar concentration varying from 0.05 to 1 mM (at least 9 concentration point). Substrates and released products were quantified by high performance anion exchange chromatography coupled with pulsed amperometric detection on an ICS-3000 using a PA1 column (Thermo Scientific). Sugars were eluted with the buffers 0.1 M NaOH and 0.5 M sodium acetate + 0.1 M NaOH as the eluants A and B, respectively, using the multistep procedure as follows: isochratic separation (5 min, 95% A + 5% B), separation gradient (8 min, 10–37% B), column wash (2 min, 99% B), and subsequent column equilibration (2.5 min, 95% A + 5% B).

XuaG = assay: Enzyme activity of XuaG on AXOS and XOS (HPAEC-PAD); assay type: biochemical, Ruminiclostridium cellulolyticum; conditions: substrate 1 mM, 37 °C
Protocol: as §2

XuaD = XuaD (Ruminiclostridium cellulolyticum, UniProt B8I0N6); assay: Enzyme activity of XuaD on AXOS (HPAEC-PAD); assay type: biochemical; conditions: for Products released by XuaD: HPAEC-PAD; for Specific activity (IU) of XuaD: substrate 1 mM, 37 °C
Chain of XuaD (B8I0N6 entry or part of it): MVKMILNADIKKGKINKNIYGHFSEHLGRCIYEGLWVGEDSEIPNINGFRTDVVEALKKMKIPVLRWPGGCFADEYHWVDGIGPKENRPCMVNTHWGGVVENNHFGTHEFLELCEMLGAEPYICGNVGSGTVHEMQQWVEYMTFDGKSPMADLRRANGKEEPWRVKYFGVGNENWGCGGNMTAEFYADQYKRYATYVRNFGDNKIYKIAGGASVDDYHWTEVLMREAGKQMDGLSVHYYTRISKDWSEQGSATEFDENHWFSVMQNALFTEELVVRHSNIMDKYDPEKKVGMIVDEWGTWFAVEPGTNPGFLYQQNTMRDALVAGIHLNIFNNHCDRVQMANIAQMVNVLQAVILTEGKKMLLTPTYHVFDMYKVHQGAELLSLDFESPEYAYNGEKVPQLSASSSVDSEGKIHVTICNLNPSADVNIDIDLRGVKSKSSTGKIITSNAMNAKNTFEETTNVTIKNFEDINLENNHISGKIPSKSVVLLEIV
Protocol: as §2

XuaE = XuaE (Ruminiclostridium cellulolyticum, UniProt B8I0N8); assay: Enzyme activity of XuaE on AXOS (HPAEC-PAD); assay type: biochemical; conditions: for Products released by XuaE: HPAEC-PAD; for Specific activity (IU) of XuaE: substrate 1 mM, 37 °C
Chain of XuaE (B8I0N8 entry or part of it): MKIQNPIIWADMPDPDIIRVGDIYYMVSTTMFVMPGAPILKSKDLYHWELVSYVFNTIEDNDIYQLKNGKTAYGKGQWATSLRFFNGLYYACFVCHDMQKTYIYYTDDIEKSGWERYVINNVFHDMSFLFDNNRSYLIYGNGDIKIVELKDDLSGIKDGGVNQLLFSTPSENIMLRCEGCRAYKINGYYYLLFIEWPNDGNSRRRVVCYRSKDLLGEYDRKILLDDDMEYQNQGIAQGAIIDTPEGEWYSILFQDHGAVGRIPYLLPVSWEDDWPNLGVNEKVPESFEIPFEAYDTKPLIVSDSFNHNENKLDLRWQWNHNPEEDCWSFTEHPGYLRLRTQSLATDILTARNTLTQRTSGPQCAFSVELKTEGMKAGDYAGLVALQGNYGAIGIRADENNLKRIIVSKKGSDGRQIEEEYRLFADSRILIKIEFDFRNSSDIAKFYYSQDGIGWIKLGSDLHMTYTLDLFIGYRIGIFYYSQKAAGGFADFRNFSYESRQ
Protocol: as §2

XuaA [2] = target: T1, XuaA; assay: Isothermal titration calorimetry (ITC) of XuaA with ligands; assay type: binding; conditions: 25 °C, 25 mM phosphate buffer pH 7.0
Protocol: as §1
A MicroCal PEAQ-ITC (Malvern, Malvern, UK) was used to determine thermodynamic parameters of the binding at 25 °C in 25 mM phosphate buffer, pH 7.0. The ligands (50–2000 µM) were injected (one injection with 0.4 µL followed by 18 injections of 2 µL) in the cell containing XuaA (5–50 µM) in the same buffer. At least one duplicate was performed.

[3] = XuaA 8 µM, ligand 1 mM or 0.1 mM (X4, X5, X6), 25 mM phosphate buffer pH 7, mean of at least 2 experiments
[4] = XuaE versus XuaD on the same substrate

OC1OC[C@@H](O[C@@H]2OC[C@@H](O[C@@H]3OC[C@@H](O[C@@H]4OC[C@@H](O)[C@H](O)[C@H]4O)[C@H](O)[C@H]3O)[C@H](O)[C@H]2O)[C@H](O)[C@H]1O (stereo partly shown) [X4]
TSA ∆T (XuaA [1]; [3]): 0 °C | Specific activity (IU) of XuaF (XuaF): IU: 87.2 ± 7.6 IU/µmol of enzyme | Specific activity (IU) of XuaG (XuaG): IU: 23.3 ± 0.5 IU/µmol of enzyme

OC1OC[C@@H](O[C@@H]2OC[C@@H](O[C@@H]3OC[C@@H](O)[C@H](O)[C@H]3O)[C@H](O)[C@H]2O)[C@H](O)[C@H]1O (stereo partly shown) [X3, xylotriose]
TSA ∆T (XuaA [1]; [3]): 0 °C | Specific activity (IU) of XuaF (XuaF): IU: 158.7 ± 21.1 IU/µmol of enzyme | Specific activity (IU) of XuaG (XuaG): IU: 24.5 ± 1.6 IU/µmol of enzyme

OC[C@@H]1O[C@@H](O[C@H]2[C@H](O[C@@H]3CO[C@@H](O[C@@H]4COC(O)[C@H](O)[C@H]4O)[C@H](O)[C@H]3O)OC[C@@H](O)[C@@H]2O)[C@H](O)[C@H]1O (stereo partly shown) [A^2XX]
TSA ∆T (XuaA [1]; [3]): 6.5 °C | Products released by XuaD (XuaD): Products: Ara, X3 | Specific activity (IU) of XuaD (XuaD): IU: 1263.0 ± 46.1 IU/µmol of enzyme | Specific activity (IU) of XuaF (XuaF): IU: 202.3 ± 18.7 IU/µmol of enzyme | Specific activity (IU) of XuaG (XuaG): blocks the activity

OC1OC[C@@H](O[C@@H]2OC[C@@H](O)[C@H](O)[C@H]2O)[C@H](O)[C@H]1O (stereo partly shown) [X2, xylobiose]
TSA ∆T (XuaA [1]; [3]): 0 °C | Specific activity (IU) of XuaF (XuaF): not active

OC[C@@H]1O[C@@H](O[C@@H]2[C@@H](O[C@@H]3O[C@@H](CO)[C@H](O)[C@H]3O)[C@H](O[C@@H]3CO[C@@H](O[C@@H]4COC(O)[C@H](O)[C@H]4O)[C@H](O)[C@H]3O)OC[C@H]2O[C@@H]2OC[C@@H](O)[C@H](O)[C@H]2O)[C@H](O)[C@H]1O (stereo partly shown) [XA^2,3XX]
TSA ∆T (XuaA [1]; [3]): 14 °C | Products released by XuaE (XuaE): Products: Ara, XA^2XX, XA^3XX | Specific activity (IU) of XuaE (XuaE): IU: 1927.2 ± 100.4 IU/µmol of enzyme | Products released by XuaD (XuaD): Products: Ara, X4 | Specific activity (IU) of XuaD (XuaD): IU: 1.5 ± 0.03 IU/µmol of enzyme | ITC -T∆S (XuaA [2]): 4.8 ± 0.5 kcal/mol | ITC N (sites) (XuaA [2]): 1.05 ± 5.67e-2 sites | Kd (XuaA [2]): 15.9 ± 0.1 nM | Specific activity (IU) of XuaF (XuaF): IU: 29.7 ± 2.8 IU/µmol of enzyme | Specific activity (IU) of XuaG (XuaG): IU: 20.3 ± 0.2 IU/µmol of enzyme

OC1OC[C@@H](O[C@@H]2OC[C@@H](O[C@@H]3OC[C@@H](O[C@@H]4OC[C@@H](O[C@@H]5OC[C@@H](O)[C@H](O)[C@H]5O)[C@H](O)[C@H]4O)[C@H](O)[C@H]3O)[C@H](O)[C@H]2O)[C@H](O)[C@H]1O (stereo partly shown) [X5]
ΔTm at 100 µM (XuaA [1]; pH 7, ligand 100 µM, Additional file 1, read-out: TSA ∆T): 0 °C | Specific activity (IU) of XuaF (XuaF): IU: 25.3 ± 0.7 IU/µmol of enzyme | Specific activity (IU) of XuaG (XuaG): IU: 6.2 ± 0.5 IU/µmol of enzyme

OC[C@H]1OC(O)[C@H](O)[C@@H](O)[C@@H]1O (stereo partly shown) [G, glucose]
ΔTm at 1000 µM (XuaA [1]; pH 7, read-out: TSA ∆T): 0 °C | Binding to XuaA (in words) (XuaA [1]): does not bind

O=C[C@H](O)[C@@H](O)[C@H](O)CO [X, xylose]
ΔTm at 1000 µM (XuaA [1]; pH 7, ligand 1 mM, Additional file 1, read-out: TSA ∆T): 0 °C | Binding to XuaA (in words) (XuaA [1]): does not bind; also recorded: failed to bind

OC[C@@H]1O[C@@H](O[C@@H]2[C@@H](O[C@@H]3O[C@@H](CO)[C@H](O)[C@H]3O)[C@H](O[C@@H]3CO[C@@H](O[C@@H]4COC(O)[C@H](O)[C@H]4O)[C@H](O)[C@H]3O)OC[C@H]2O)[C@H](O)[C@H]1O (stereo partly shown) [A^2,3XX]
TSA ∆T (XuaA [1]; [3]): 13.5 °C | Products released by XuaE (XuaE): Products: Ara, A^2XX, A^3XX? | Km of XuaE relative to XuaD (fold lower) (XuaE; [4]): 18 fold | kcat of XuaE relative to XuaD (XuaE; [4]): twofold lower | Specific activity (IU) of XuaE (XuaE): IU: 1938.0 ± 109.6 IU/µmol of enzyme | Products released by XuaD (XuaD): Products: Ara, X3 | Specific activity (IU) of XuaD (XuaD): IU: 1256.3 ± 50.2 IU/µmol of enzyme | ITC -T∆S (XuaA [2]): 15.1 ± 2.8 kcal/mol | ITC N (sites) (XuaA [2]): 0.796 ± 2.37e-2 sites | Kd (XuaA [2]): 12 ± 4.6 nM | Specific activity (IU) of XuaG (XuaG): blocks the activity

OC1OC[C@@H](O[C@@H]2OC[C@@H](O[C@@H]3OC[C@@H](O[C@@H]4OC[C@@H](O[C@@H]5OC[C@@H](O[C@@H]6OC[C@@H](O)[C@H](O)[C@H]6O)[C@H](O)[C@H]5O)[C@H](O)[C@H]4O)[C@H](O)[C@H]3O)[C@H](O)[C@H]2O)[C@H](O)[C@H]1O (stereo partly shown) [X6, Xylohexaose]
TSA ∆T (XuaA [1]; [3]): 0 °C | TSA ∆T (XuaA [1]; ligand 100 µM, Additional file 1): 0 °C
